Results published in patent US4731383A, “Aminoguanidine compounds, their compositions and pharmaceutical uses” (Biogal Gyogyszergyar, priority 1983, dated 1988).
Structures can show the parent of a compound that is named as a salt. Where two headings read alike, the source gives them in different places.

How the values were obtained:
[1] = test system: left auricle of isolated rabbit heart; test: Electrophysiological tests in the isolated rabbit heart, left auricle; settings: for Change in conduction time / Change in electric stimulus threshold / Change in max. driving frequency: n = 4
Protocol: (§1) Hearts of rabbits of both sexes, weighing 1 to 2 kg, were removed, the right and left auricles and a segment of the right ventricle were prepared and placed into a vessel filled with nutrient solution. Bipolar platinum electrodes (a stimulating electrode and a lead electrode) were placed on the organ strips, and the electric stimulus threshold and the speed of impulse conduction were measured. The effective refractory period was determined on the basis of the maximal driving frequency.

[2] = test system: right ventricle of isolated rabbit heart; test: Electrophysiological tests in the isolated rabbit heart, right ventricle; settings: n = 4
Protocol: as §1

[3] = test system: mice treated with aconitin; test: animal or person; type: in vivo; settings: Mus musculus, read-out: Delay in the appearance time of arrhythmia
Protocol: Arrhytmia was induced in male mice, weighing 20 to 25 g, by treating them continuously, at a rate of 0.2 ml/min with an infusion containing 5 μg/kg of aconitin. The test compound was administered to the animals either intraperitoneally (by injecting it into the abdominal cavity) 15 minutes before the start of the infusion, or orally 60 minutes before the onset of the infusion. The time of the appearance of arrhythmia was recorded, and the percentage of delay was calculated in relation to the data obtained in the controls, pretreated with 0.9 percent sodium chloride solution only [B. Vargaftig and J. L. Coignet: European J. of Pharmacol. 6, 49 to 55 (1969); N. K. Dadkar and B. K. Bhattachariya: Arch. Int. Pharmacodyn. 212, 297 to 301 (1974); D. U. Nwagwu, T. L. Holcslaw and S. J. Stohs: Arch. Int. Pharmacodyn. 229, 219 to 226 (1977)].

in vivo = settings: mouse

Cc1ccccc1NNC(=N)N(C)C [Example 1, 1-(2-Methylphenyl)-4,4-dimethyl-aminoguanidine hydrochloride]
Change in conduction time ([1]; 0.25 mg/l): +0.54% | Change in electric stimulus threshold ([1]; 0.25 mg/l): 0% | Change in max. driving frequency ([1]; 0.25 mg/l): -0.08% | Change in conduction time ([1]; 0.5 mg/l): +8.66% | Change in electric stimulus threshold ([1]; 0.5 mg/l): -1.82% | Change in max. driving frequency ([1]; 0.5 mg/l): -0.98% | Change in conduction time ([1]; 1.0 mg/l): +12.55% | Change in electric stimulus threshold ([1]; 1.0 mg/l): -11.8% | Change in max. driving frequency ([1]; 1.0 mg/l): -9.21% | Change in conduction time ([1]; 2.0 mg/l): +28.42% | Change in electric stimulus threshold ([1]; 2.0 mg/l): +30.84% | Change in max. driving frequency ([1]; 2.0 mg/l): -17.09% | Change in conduction time ([1]; 4.0 mg/l): +47.87% | Change in electric stimulus threshold ([1]; 4.0 mg/l): +43.4% | Change in max. driving frequency ([1]; 4.0 mg/l): -28.82% | Change in conduction time ([1]; 8.0 mg/l): +114.03% | Change in electric stimulus threshold ([1]; 8.0 mg/l): +83.9% | Change in max. driving frequency ([1]; 8.0 mg/l): -59.1% | inhibition at 0.25 µg/mL ([1]; Oryctolagus cuniculus, 0.25 mg/l, n = 4, read-out: Contractility): 2.61% | inhibition at 0.5 µg/mL ([1]; Oryctolagus cuniculus, 0.5 mg/l, n = 4, read-out: Contractility): 7.57% | inhibition at 1 µg/mL ([1]; Oryctolagus cuniculus, 1.0 mg/l, n = 4, read-out: Contractility): 15.5% | inhibition at 2 µg/mL ([1]; Oryctolagus cuniculus, 2.0 mg/l, n = 4, read-out: Contractility): 18.1% | inhibition at 4 µg/mL ([1]; Oryctolagus cuniculus, 4.0 mg/l, n = 4, read-out: Contractility): 27.1% | inhibition at 8 µg/mL ([1]; Oryctolagus cuniculus, 8.0 mg/l, n = 4, read-out: Contractility): 37.9% | Change in conduction time ([2]; 0.25 mg/l): +0.2% | Change in electric stimulus threshold ([2]; 0.25 mg/l): 0% | Change in max. driving frequency ([2]; 0.25 mg/l): -0.88% | Change in conduction time ([2]; 0.5 mg/l): +3.31% | Change in electric stimulus threshold ([2]; 0.5 mg/l): -1.43% | Change in max. driving frequency ([2]; 0.5 mg/l): -0.38% | Change in conduction time ([2]; 1.0 mg/l): +14.84% | Change in electric stimulus threshold ([2]; 1.0 mg/l): +5.42% | Change in max. driving frequency ([2]; 1.0 mg/l): -1.82% | Change in conduction time ([2]; 2.0 mg/l): +36.75% | Change in electric stimulus threshold ([2]; 2.0 mg/l): +20.6% | Change in max. driving frequency ([2]; 2.0 mg/l): -10.33% | Change in conduction time ([2]; 4.0 mg/l): +52.45% | Change in electric stimulus threshold ([2]; 4.0 mg/l): +23.6% | Change in max. driving frequency ([2]; 4.0 mg/l): -17.43% | Change in conduction time ([2]; 8.0 mg/l): +77.82% | Change in electric stimulus threshold ([2]; 8.0 mg/l): +35.8% | Change in max. driving frequency ([2]; 8.0 mg/l): -36.8% | change in vivo at 25 mg/kg ([3]; ip): 164% | change in vivo at 50 mg/kg ([3]; ip): 174% | change in vivo at 50 mg/kg ([3]; po): 102% | change in vivo at 100 mg/kg ([3]; po): 197% | LD50 (in vivo; ip): 81 mg/kg | LD50 (in vivo; po): 203 mg/kg
